Data: patent publication US8716558B2, “Method of altering glycosylation of proteins in response to nojirimycin glucuronide in a plant cell expressing glucuronidase” (Marker Gene Technologies, Inc., priority 1999, dated 2014)

Experiments:
[1] = test system: E. coli CSH36/S90C and CSH22/S90C co-culture; test: Co-culture selection, colony growth on X-gal plates; assay type: cell-based; details: 30 μg/ml chloramphenicol or 42 μg/ml M0165, plated on X-gal
Experimental: E. coli strains CSH36/S90C and CSH22/S90C were grown in co-culture and tested with the chloramphenicol galactoside pro-drug (M0165) described in Example 15, to show lack of translocation of drug released in β-galactosidase expressing cells to other cells in the culture, and therefore selection for the lacZ-cells. CSH36 is a constitutive mutant for lacZ and therefore produces β-galactosidase regardless of induction conditions. CSH22 is a deletion mutant for lacZ and is therefore uninducible. Each strain individually and both strains together were innoculated into 10 mL aliquots of M9 minimal media and grown shaking at 37° C. overnight. Overnight cultures (500 μL) were transferred into 10 mL fresh M9 media and grown to logarithmic phase for 4 hours prior to beginning the experiments. 1 mL of this culture was transferred to 10 ml fresh M9 media containing 30 μg/ml chloramphenicol, 42 μg/ml M0165, or no additions, and returned to the incubator. Growth curves were generated by removing aliquots of each culture at 30 minute intervals and reading absorbance at 420 nm. Remaining portions of the cultures were allowed to grow overnight, and final absorbance readings were taken. […] Plates were incubated at 37° C. for 48 hours, then evaluated for growth of white (indicating lacZ −, CSH22 cells) and blue (indicating lacZ +, CSH 36 cells) colonies.

[2] = test system: GUS-positive potato (May queen) plants; test: Negative selection of potato transformants; assay type: in vivo; details: M0627 3.5 mg/L, M0630 10 mg/L, M0632 10 mg·L, M0792 5 mg/L; MS media, soil or daily spray
Experimental: Potato (May queen) pieces with sprouts are planted in a mixture of vermiculite and compost (1:1). After two weeks, the apical meristem culture of the grown sprouts is removed to obtain the sterile seedling plants. Sterile plants are then placed in MS liquid medium containing 2% sucrose, pH 5.7 (80 ml) and incubated with rotation at 25° C. in a well-lighted place to induce rooting. After two weeks, the rooted plants are transferred into MS liquid medium for microtuber induction (MS medium, 8% sucrose, pH 5.7, 40 ml medium in 100 ml Erlenmeyer flask) in the dark for 28 days. The microtubers are then cut into pieces (2 mm) and transferred into agar medium for regeneration (MS medium, 2% sucrose, 1 mg/l zeatin, 0.1 mg/l IAA, 1% agar). The pieces of the microtuber pre-cultured for two days are then immersed in an Agrobacterium tumefaciens strain LBA4404 suspension containing the binary plasmid pBI121 (Clontech, Palo Alto, Calif.) for transformation. The plasmid pBI121 carries the neomycin phosphotransferase (NPTII) gene and β-glucuronidase (GUS) gene. In this vector, the neomycin phosphotransferase (NPTII) gene is under the control of the nopaline synthase (nos) promoter and the terminator from nopaline synthase (nos) which provides polyadenylation signal. The neomycin phosphotransferase (NPTII) gene confers kanamycin resistance. The β-glucuronidase (GUS) activity is under the control of the cauliflower mosaic virus ^35S promoter, providing constitutive expression in all tissues, and the terminator from nopaline synthase (nos) provides polyadenylation. Agrobacterium tumefaciens was grown overnight at 28° C. in liquid YEP medium (Sambrook J., Fritsch E. F., Maniatis T., Molecular Cloning: a laboratory manual. 2nd ed., Cold Spring Harbor, N.Y., 1989) supplemented with 25 mg/l rifampicin, 50 mg/l streptomycin, and 50 mg/l kanamycin. An overnight culture is diluted with liquid TE medium to 4×10^8 cells/ml for transformation. A filter paper is placed on the agar medium, over the microtuber pieces and the co-culture is continued for 48 hours. The transfected microtubers are then washed 4-5 times in sterile distilled water to decrease the concentration of Agrobacterium tumefaciens and with a cefotaxime (250 mg/l) solution for 20 min, and then again with sterile distilled water (4-5 times). The microtubers are then transferred into an agar screening medium (MS medium, 2% sucrose, 1 mg/l zeatin, 1 mg/l IAA, 1% agar, 50 mg/l kanamycin, 500 mg/l Claforan, 1% agar). After about two months growth, the divided shoots are transferred into a rooting induction medium and then into a microtuber induction medium. The obtained GUS-positive plants are used for the analysis.

wild-type potato plants = test: Negative selection of potato, wild type; assay type: in vivo; details: M0627 3.5 mg/L, M0630 10 mg/L, M0632 10 mg·L, M0792 5 mg/L; MS media, soil or daily spray
[3] = test system: GUS-positive tomato (minitomato) plants; test: Negative selection of tomato transformants; assay type: in vivo; details: M0627 3.5 mg/L, M0630 10 mg/L, M0632 10 mg·L, M0792 5 mg/L; MS media, soil or daily spray
Experimental: Tomato (cultivar, minitomato) seeds are surface-sterilized with 70% ethanol (30 seconds) and 2% sodium hypochlorite (15 minutes), and then placed on a plant hormone-free MS agar medium. The seeds are cultured at […] 23° C. in long-day (16 hours light/8 hours dark) cycles, under a mixture of Cool White and Gro-Lux/WS fluorescent lights (Osram, Sylvania) and sterile conditions. The cotyledons are taken from the obtained sterile seedlings and then placed on an MS agar medium containing 2 mg/l of Zeatin and 0.1 mg/l of IAA (regeneration medium) in 9 cm Petri dishes, and cultured under the same conditions as those described above for 2 days.
Agrobacterium tumefaciens strain LBA4404 suspension containing the binary plasmid pBI121 (Clontech, Palo Alto, Calif.) is used for transformation. The plasmid pBI121 carries the neomycin phosphotransferase (NPTII) gene and β-glucuronidase (GUS) gene. In this vector, the neomycin phosphotransferase (NPTII) gene is under the control of the nopaline synthase (nos) promoter and the terminator from nopaline synthase (nos) which provides polyadenylation signal. The neomycin phosphotransferase (NPTII) gene confers kanamycin resistance. The β-glucuronidase (GUS) activity is under the control of the cauliflower mosaic virus ^35S promoter, providing constitutive expression in all tissues, and the terminator from nopaline synthase (nos) provides polyadenylation. Agrobacterium tumefaciens is grown overnight at 28° C. in liquid YEP medium (Sambrook J., Fritsch E. F., Maniatis T., Molecular Cloning: a laboratory manual. 2nd ed., Cold Spring Harbor, N.Y., 1989) supplemented with 25 mg/l rifampicin, 50 mg/l streptomycin, and 50 mg/l kanamycin. An overnight culture is diluted with liquid TE medium to 4×10^8 cells/ml for transformation.
The cotyledons cultured for two days are collected in a sterilized Petri dish, and the Agrobacterium suspension is added to them to cause infection. Superfluous Agrobacterium suspension is removed from the cotyledons by using a sterilized filter paper. After further removing excess Agrobacterium suspension, a sterilized filter paper is placed on the medium in the Petri dish in order to prevent rapid propagation of Agrobacterium. The infected cotyledons are placed on this media and co-cultured for 24 hours.
The transfected cotyledons are then transferred into an agar screening medium (MS medium, 2% sucrose, 1 mg/l zeatin, 1 mg/l IAA, 1% agar, 50 mg/l kanamycin, 500 mg/l claforan, 1% agar) to select the GUS transformant plants. The regenerated shoots are then transferred into a new selecting medium to conduct further selection.

[4] = test system: Arabidopsis thaliana Landsberg erecta wild type (WT); test: Plant growth on MS media containing conjugates, wild type; assay type: in vivo
From the text: (§1) Arabidopsis thaliana Landsberg erecta is a wild type (WT) strain derived from the Landsberg ecotype. Arabidopsis thaliana Landsberg erecta strain DW150-307 (DW) is a transgenic strain produced using the method of Blazquez et al., 1997, Development 124:3835-3844. The transgenic DW strain is homozygous for the LFY::GUS insertion and thus contains GUS under control of the full length LFY promoter that expresses E. coli β-glucuronidase. Expression of GUS in this strain is developmentally regulated, showing the highest levels 9 days after germination (at the onset of meristem floral initiation under a long-day, 16 h. light regime), but having basal levels in vegetative apices throughout secondary growth. Accordingly, GUS expression leads to production of the E. coli β-glucuronidase enzyme in floral and to a lesser extent in shoot meristem tissues of the plant. Isogenic homozygous plant strains were kindly provided by Dr. Detlef Weigel, Department of Biology, The Salk Institute, San Diego, Calif.
(§2) Wild type (WT) and recombinant (DW) plants were grown in MS media containing 0-100 ug/mL of conjugates M0630, M0632, or M0792 (prepared as set forth herein). All plants were grown at 23° C. in long-day (16 hours light/8 hours dark) cycles, under a mixture of Cool White and Gro-Lux/WS fluorescent lights (Osram, Sylvania) and sterile conditions.

wild-type tomato plants = test: Negative selection of tomato, wild type; assay type: in vivo; details: M0627 3.5 mg/L, M0630 10 mg/L, M0632 10 mg·L, M0792 5 mg/L; MS media, soil or daily spray
[5] = test system: Arabidopsis thaliana Landsberg erecta strain DW150-307 (DW); test: Plant growth on MS media containing conjugates, LFY::GUS recombinant; assay type: in vivo; details: for floral tissue response of DW plants upon inflorescence / vegetative growth of DW plants: MS media containing conjugate
From the text: as §1, §2

[6] = 100 ug/mL in MS media (highest concentration)
[7] = lower concentrations in MS media

| Structure (SMILES) | colony growth after overnight co-culture [1] | effect on GUS-positive plants [2] | effect on wild-type plants (wild-type potato plants) | effect on GUS-positive plants [3] | growth of wild type plants [4, 6] | growth of wild type plants [4, 7] | effect on wild-type plants (wild-type tomato plants) | growth phenotype of DW150-307 plants ([5]; 1 ug/mL for 32 days) | germination and survival of DW plants ([5]; media application, above the lowest concentration) | floral tissue response of DW plants upon inflorescence [5] | vegetative growth of DW plants [5] |
| --- | --- | --- | --- | --- | --- | --- | --- | --- | --- | --- | --- |
| O=C(NC(COC1OC(CO)C(O)C(O)C1O)C(O)c1ccc([N+](=O)[O-])cc1)C(Cl)Cl [Example M0165, D(−)-threo-2,2-dichloro-N-[β-hydroxy-α-(O-β-D-galactopyranosylmethyl)-β-(4-nitrophenyl)ethyl]acetamide] | growth of only CSH22 cells | – | – | – | – | – | – | – | – | – | – |
| COC(=O)C1OC(Oc2ccc(=O)[nH]n2)C(OC(C)=O)C(OC(C)=O)C1OC(C)=O [Example M0627, Maleic Hydrazide Beta-D-Glucuronide Triacetate, Methyl Ester] | – | selective ablation | does not affect growth or morphology | selective ablation | slightly slower | comparable growth to the blank controls | does not affect growth or morphology | – | – | – | – |
| O=C(N[C@H](CO)[C@H](O)c1ccc([N+](=O)[O-])cc1)C(Cl)Cl [chloramphenicol, reference compound] | no growth of either cell type | – | – | – | – | – | – | – | – | – | – |
| COC(=O)C1OC(Oc2c(Br)cc(C#N)cc2Br)C(O)C(O)C1O [Example M0632, Bromoxynil-β-D-glucuronic acid methyl ester] | – | selective ablation | does not affect growth or morphology | selective ablation | slightly slower | comparable growth to the blank controls | does not affect growth or morphology | callus formation | either did not germinate or were ablated shortly after germination | – | – |
| COC(=O)C1OC(OC(CC2CC(=O)NC(=O)C2)C2CC(C)CC(C)C2=O)C(OC(C)=O)C(OC(C)=O)C1OC(C)=O [Example M0792, Cycloheximide-β-D-glucuronic acid methyl ester triacetate] | – | selective ablation | does not affect growth or morphology | selective ablation | slightly slower | comparable growth to the blank controls | does not affect growth or morphology | – | – | floral tissues became chlorotic (brown) and became dehydrated and ablated | normal vegetative growth until inflorescence initiation |
| COC(=O)C1OC(Oc2c(Br)cc(C#N)cc2Br)C(OC(C)=O)C(OC(C)=O)C1OC(C)=O [Example M0630, bromoxynil-β-D-glucuronic acid methyl ester triacetate] | – | selective ablation | does not affect growth or morphology | selective ablation | – | – | does not affect growth or morphology | – | – | floral tissues became chlorotic (brown) and became dehydrated and ablated | normal vegetative growth until inflorescence initiation |
